Experimental findings from US20220304978A1, “INHIBITING MESANGIAL CELL ACTIVATION” (Chinook Therapeutics, Inc., priority 2019, published 2022) are described below.

The test system of one test is g-ddY mice. The test is described as follows: UACR (albuminuria) in g-ddY mouse model of IgA nephropathy. The test is classed as in vivo. An excerpt: The grouped ddY (g-ddY) mouse is a spontaneous model of early-onset IgA nephropathy characterized by IgA immune complex deposition in the mesangium of the kidney, leading to significant proteinuria, glomerular hypercellularity, mesangioproliferative glomerular lesions, glomerular sclerosis and reduced kidney function, all hallmarks of human IgA nephropathy (J Am Soc Nephrol 23: 1364-1374, 2012). Consistent with human IgA nephropathy, the mesangial IgA deposits in the g-ddY mouse are also accompanied by deposition of IgG and complement C3.

For test [1], the system named is kidney tissue of g-ddY mice. As to the kind of experiment: Gene Set Enrichment Analysis (GSEA) hallmark gene sets, g-ddY kidney RNA-seq. The format is in vivo, mouse. As to conditions: 30 mg/kg/day.
The subject of test [2] is kidney tissue of g-ddY mice. The test is described as follows: Ingenuity Pathway Analysis (IPA) canonical pathways, g-ddY kidney RNA-seq. The test is classed as in vivo, mouse. As to conditions: 30 mg/kg/day.
Setting [3] is: 20 and 30 mg/kg/day, approximately 5 days.

Molecules are shown by their SMILES.

As for `CCCCN(CCCC)C(=O)CN1C[C@H](c2ccc3c(c2)OCO3)[C@@H](C(=O)O)[C@@H]1c1ccc(OC)cc1` [atrasentan, (2R,3R,4S)-4-(1,3-benzodioxol-5-yl)-1-[2-(dibutylamino)-2-oxoethyl]-2-(4-methoxyphenyl)pyrrolidine-3-carboxylic acid], the “effect to reduce UACR from baseline compared to the control group” value (from here on “effect to reduce UACR from baseline”) in the test with g-ddY mice (10 mg/kg/day) is on record as “not significant”. Also, the “albuminuria compared to baseline” value with g-ddY mice (10 mg/kg/day, approximately 5 days) is “not significantly changed from baseline”. For the same compound, the “effect to reduce UACR from baseline” value in the test on g-ddY mice (20 mg/kg/day, P=0.0498, un-paired t-test) is reported as “statistically significant”. For the same compound, the “albuminuria compared to baseline” value in the test on g-ddY mice (20 mg/kg/day, approximately 5 days, P=0.0593) was “reduced from baseline to a similar extent”. Moreover, the “effect to reduce UACR from baseline” value with g-ddY mice (30 mg/kg/day, P=0.029) is “statistically significant”. Moreover, in the test with g-ddY mice (30 mg/kg/day, approximately 5 days, paired t-test), the “albuminuria compared to baseline” value was “significantly (P=0.0002, paired two-sided t-test) reduced”. In the test on g-ddY mice (setting [3]), the “albuminuria compared to control g-ddY mice” value is listed as “significantly reduced” and the “albuminuria lowering, reduction from baseline” value is given as over 60%. In test [1], the “cell proliferation associated signaling (mitotic spindle and G2M checkpoint)” value is “reduced”; the inflammatory response signaling entry was “reduced”. In test [2], the IL-6 signaling result is “reduced”, the NF-κB signaling result is reported as “reduced” and the PDGF signaling entry is “reduced”.
